Several values for one entry are separate records, joined by “and”; a condition that tells them apart may be missing. Equal values may be shown once. Entries after “also recorded” stand apart in the source; their conditions may differ. Read-outs that look alike come from different tables or passages of the source.
Assays:
[1] = molecular target: T1, NRP1 b1 domain (Homo sapiens, UniProt O14786); test: SPR binding to immobilized NRP1 b1 domain (Biacore 4000, CM5 chip); details: Figure 2B; read-out: KD (kinetics)
T1 construct: with the purified recombinant NRP1 b1 domain immobilized on the chip; inferred from Ni-NTA capture), TEV-cleavable (cleaved yes); made in house; host or cells: E. coli Rosetta (DE3)
T1 sequence (O14786 275-424 limits assumed): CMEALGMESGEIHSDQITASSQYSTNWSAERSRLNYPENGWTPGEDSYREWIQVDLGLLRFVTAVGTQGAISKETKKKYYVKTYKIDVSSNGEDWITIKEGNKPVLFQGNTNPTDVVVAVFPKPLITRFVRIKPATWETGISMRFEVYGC

[2] = tested on: VEGFA-induced aversion to mechanical stimuli in rats; test: Conditioned place aversion (CPA) to 10 g vF stimulation after VEGFA; assay type: in vivo, rat
Protocol: The procedure was performed as reported previously. Briefly, rats were gently restrained in a fabric cloth and given an intraplantar injection in the hind-paw containing VEGFA165 (10 nM) and compound (EG00229 or 12h, at 30 or 10 μM) alone or in combination in 50 μL of PBS vehicle (NaCl 137 mM, KCl 2.5 mM, Na2HPO4 10 mM, and KH2PO4 1.8 mM), using a 31G needle.
The experiments were conducted in a two-chamber device based on the protocols from and as previously described. The protocol includes 4 × 10 min of sequential tests of preconditioning (10 min), conditioning (2 × 10 min) and testing (10 min). During preconditioning, the animal is allowed free access to two connected chambers (30 × 30 × 19 cm), each associated with a scented lip-balm applied to the walls. Immediately following preconditioning, a divider was applied between the chambers, and the rats were conditioned to either stimuli or no-stimuli for 10 min in each chamber. The stimuli consisted of repeated stimulation with a 10 g VF-filament every 30 s for the 10 min that the subject was contained in that chamber, while no stimuli (NS) was applied in the other chamber. The order and side of conditioning was alternated between subjects. Following the conditioning, the divider was removed, and the rat was allowed free access to both chambers for the 10 min test. Animal movements in each chamber were recorded by a camera above, and the duration of time spent in each chamber was recorded during preconditioning and test phase. Decreased time spent in a chamber during the test versus preconditioning indicated avoidance for that chamber and was calculated as a CPA-score: time in VF-chamber during preconditioning – time in VF-chamber during test.

[3] = tested on: T180/Y182 phosphorylated p38 (P-p38) in retinal endothelium; test: VEGFA-induced p38 phosphorylation in ex vivo mouse retina (immunostaining); assay type: cell-based
Protocol: Retinae from C57Bl/6J mice were fixed in 4% formaldehyde in PBS for 1 h and washed three times with PBS. After 1 h in blocking buffer (3% Triton X-100, 1%1% Tween and 0.5% BSA in 2× PBS), retinae were immunostained by incubation with rabbit anti-P-p38 MAPK (Thr180/Tyr182) antibody (Cell Signaling) and biotin-conjugated Isolectin B4 (IB4, Merck) overnight at 4 °C, followed by Alexa Fluor 555–conjugated goat antirabbit antibodies (Invitrogen) and Alexa Fluor 488-conjugated streptavidin (Invitrogen) respectively for 1 h at rt. Images were acquired with a Zeiss Axioskop 2 microscope, using a ph3 Plan-Apochromat 63×/1.40 oil objective, Hamamatsu camera and the HCImage software. Each image was acquired as an RGB color image and then processed with ImageJ software version 1.52a (NIH Bethesda). Channels were split to separate the IB4 staining (green channel) from the P-p38 staining (red channel). The threshold function was used on the IB4 image to determine the area of the vessels and to generate a mask that was restored in the red channel image to measure the area of the vessels positive to P-p38 staining. The P-p38 staining area was normalized against the area stained with IB4. Three retinae from three different mice per condition were used for analysis. One-way ANOVA was used to compare the different treatments.

[4] = molecular target: T2, NRP1-a1,b1 (Homo sapiens, UniProt O14786); test: bt-VEGFA cell-free competition binding assay (plate-based)
T2 sequence (O14786 273-427 limits assumed): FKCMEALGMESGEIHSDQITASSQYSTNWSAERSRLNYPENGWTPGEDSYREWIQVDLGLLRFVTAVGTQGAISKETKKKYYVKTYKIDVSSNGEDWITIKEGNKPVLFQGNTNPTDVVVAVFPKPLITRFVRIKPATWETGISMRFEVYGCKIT
Protocol: The assay was conducted as previously described. Briefly, the 96-well plates were precoated with NRP1 protein at 3 μg/mL overnight at 4 °C. On the following day, the plates were treated with blocking buffer (PBS containing 1%1% BSA) and washed three times with wash buffer (PBS containing 0.1% Tween-20). The various concentrations of compounds diluted in PBS containing 1%1% DMSO were added, followed by addition of 0.25 nM of bt-VEGFA165. After 2 h of incubation at room temperature, the plates were washed three times with wash buffer. The bound bt-VEGFA165 to NRP1 was detected by streptavidin– horseradish peroxidase conjugates and the enzyme substrate, and measured using a Tecan Genius plate reader at 450 nm with a reference wavelength at 595 nm. Nonspecific binding was determined in the absence of NRP1-coated wells of the plates.

[5] = tested on: vascular permeability of perfused mouse retina blood vessels; test: Ex vivo retina permeability assay (sulforhodamine B extravasation); assay type: cell-based
Source text: C57Bl/6J mice were culled through CO2 overdose before proceeding with the cannulation of the common carotid arteries and perfusion of the vasculature, as previously described. Each eye was subsequently removed and enucleated. The retina was isolated with the attached sclera, flattened onto a silicone base (SYLGARD 184, Merck), and held in position by a metal ring and pins. Retinal explants were visualized with an Olympus 10× objective on an upright Axiophot fluorescence microscope (Zeiss) and continuously superfused with Krebs solution (124 mM NaCl, 5 mM KCl, 2 mM MgSO4, 22 mM […], 0.125 mM NaH2PO4 and 2 mM CaCl2, pH 7.4) supplemented with 5 mM glucose and 0.1% BSA w/v. A radial vein was injected with 1 mg/mL sulforhodamine B (479 Da; Merck) in Krebs solution using a glass needle to visualize the vasculature under a TRITC filter with an Olympus 40× water immersion objective. For permeability measurements, the fluorescence of a selected microvessel was recorded continuously by time-lapse imaging with a CCD camera (Hamamatsu) and HCImageLive software (Hamamatsu) for at least 30 s to obtain a baseline. VEGFA164 or EG00229 in Krebs solution were then added dropwise onto the retina. […] Time-lapse series were analyzed using ImageJ (NIH Bethesda). […] Permeability measurements from at least three different ex vivo retinal preparations were combined and expressed as mean ± SD. […]

N=C(N)NCCC[C@H](NC(=O)c1sccc1NS(=O)(=O)c1cc(NCc2csc(N3CCNCC3)n2)cc2cccnc12)C(=O)O.O=CO [Compound 12h, (2S)-5-Guanidino-2-[[3-[[6-[(2-piperazin-1-ylthiazol-4-yl)-methylamino]-8-quinolyl]-sulfonylamino]-thiophene-2-carbonyl]-amino]-pentanoic Acid, Formic Acid]
Kd [1]: 346 nM
VEGFA-induced stimulus-aversion (time in vF-conditioned chamber), Figure S5 ([2]; 10 μM coinjected with VEGFA 10 nM): blocked by 10 μM 12h in males
effect on VEGFA-induced aversion in CPA-paradigm ([2]; 10 μM, male rats): showed significant reduction in VEGFA-induced aversion
VEGFA-induced aversion (time in vF-conditioned chamber) ([2]; 30 μM coinjected with VEGFA 10 nM, male and female rats): prevented significant stimulus-aversion from VEGFA in both sexes; also recorded: the aversion was prevented
CPA-score vs VEGFA/vehicle ([2]; 30 μM, female rats): did not show a statistically significant improvement
p38 phosphorylation when added alone ([3]; 30 μM alone, 5 min): did not induce p38 phosphorylation
effect on VEGFA-induced p38 phosphorylation in retinal endothelium ([3]; 30 μM, 15 min prior to VEGFA165 stimulation): prevented VEGFA-induced p38 phosphorylation
IC50 ([4]; 0.25 nM bt-VEGFA165, mean ± SEM, at least three independent experiments, read-out: Competition analysis bt-VEGFA, cell-free NRP1-a1,b1 IC50): 320 ± 40 nM
IC50 ([4]; plate-based assay, Figure 2D, read-out: IC50, competitive inhibition of bt-VEGFA binding to NRP1): 362 nM and < 500 nM
effect on VEGFA-induced dye extravasation ([5]; 30 μM, 15 min preincubation of retinal explants): significantly reduced VEGFA-induced dye extravasation
effect on vascular permeability, alone ([5]; compound alone, ex vivo mouse retina): had no effect on vascular permeability

From article PMC12624434 (ACS Pharmacology & Translational Science, 2025)
